These results are taken from patent US8044198B2, “Sirtuin modulating compounds” (Sirtris Pharmaceuticals, Inc., priority 2005, dated 2011).

Where only a bound is given, the exact number is not on record here.

The target in assay [1] is T1, SIRT1 (Homo sapiens, UniProt Q96EB6).
T1 sequence (Q96EB6 1-747): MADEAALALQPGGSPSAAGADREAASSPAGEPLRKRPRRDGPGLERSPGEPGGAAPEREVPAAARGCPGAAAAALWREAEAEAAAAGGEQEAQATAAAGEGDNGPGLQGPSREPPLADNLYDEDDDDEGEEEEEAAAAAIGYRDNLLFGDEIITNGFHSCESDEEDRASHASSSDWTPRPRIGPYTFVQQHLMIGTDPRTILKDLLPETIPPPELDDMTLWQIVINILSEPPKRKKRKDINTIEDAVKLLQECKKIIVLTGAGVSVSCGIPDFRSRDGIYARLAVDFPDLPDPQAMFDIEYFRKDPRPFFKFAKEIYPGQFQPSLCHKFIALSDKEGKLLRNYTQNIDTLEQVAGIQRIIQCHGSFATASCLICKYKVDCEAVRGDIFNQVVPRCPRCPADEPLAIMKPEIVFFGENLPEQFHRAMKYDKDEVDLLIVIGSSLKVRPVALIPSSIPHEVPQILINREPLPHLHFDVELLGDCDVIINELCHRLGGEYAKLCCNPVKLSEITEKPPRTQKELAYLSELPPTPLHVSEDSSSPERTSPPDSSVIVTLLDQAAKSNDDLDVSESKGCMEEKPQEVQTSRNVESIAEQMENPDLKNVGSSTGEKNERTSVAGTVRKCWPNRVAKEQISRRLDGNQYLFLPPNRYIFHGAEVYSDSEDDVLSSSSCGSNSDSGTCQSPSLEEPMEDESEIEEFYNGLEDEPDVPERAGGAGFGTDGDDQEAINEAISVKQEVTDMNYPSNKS
Kind of assay: SIRT1 fluorescence polarization (FP) deacetylation assay with p53-based peptide substrates. Conditions: SIRT1 activation, read-out: ED50 FP ASSAY. The format is biochemical. The method, then: A fluorescence polarization or mass spectrometry based assay was used to identify modulators of SIRT1 activity. The same assay may be used to identify modulators of any sirtuin protein. The fluorescence polarization assays utilizes one of two different peptides based on a fragment of p53, a known sirtuin deacetylation target. Compounds 1-18 were tested using a substrate containing peptide 1 having 14 amino acid residues as follows: […](Ac)NleSTEG (SEQ ID NO: 1) wherein K(Ac) is an acetylated lysine residue and Nle is a norleucine. The peptide is labeled with the fluorophore MR121 (excitation 635 nm/emission 680 nm) at the C-terminus and biotin at the N-terminus. The sequence of the peptide substrate is based on p53 with several modifications. In particular, all arginine and leucine residues other than the acetylated lysine have replaced with serine so that the peptide is not susceptible to trypsin cleavage in the absence of deacetylation. In addition, the methionine residue naturally present in the sequence has been replaced with the norleucine because the methionine may be susceptible to oxidation during synthesis and purification. […] This peptide is labeled with the fluorophore MR121 (excitation 635 nm/emission 680 nm) at the C-termini and biotin at the N-termini. The sequence of the peptide substrates are based on p53 with several modifications. In particular, all arginine and leucine residues other than the acetylated lysine residues have replaced with serine so that the peptides are not susceptible to trypsin cleavage in the absence of deacetylation. In addition, the methionine residues naturally present in the sequences have been replaced with the norleucine because the methionine may be susceptible to oxidation during synthesis and purification. […] The peptide is labeled with the fluorophore 5TMR (excitation 540 nm/emission 580 nm) at the C-terminus. The sequence of the peptide substrate is also based on p53 with several modifications. In addition, the methionine residue naturally present in the sequence was replaced with the norleucine because the methionine may be susceptible to oxidation during synthesis and purification.
The peptide substrates were exposed to a sirtuin protein in the presence of NAD^+ to allow deacetylation of the substrate and render it sensitive to cleavage by trypsin. Trypsin was then added and the reaction was carried to completion (i.e., the deacetylated substrate is cleaved) releasing the MR121 or 5TMR fragment. Streptavidin is then added to the reaction where it can bind both the uncleaved substrate (i.e., any remaining acetylated substrate) and the non-fluorescent portion of the cleaved peptide substrate (i.e., the biotin containing fragment). The fluorescence polarization signal observed for the full length peptide substrates bound to streptavidin was higher than the fluorescence polarization signal observed for the released MR121 or 5TMR C-terminal fragment. In this way, the fluorescence polarization obtained is inversely proportional to the level of deacetylation (e.g., the signal is inversely proportional to the activity of the sirtuin protein). Results were read on a microplate fluorescence polarization reader (Molecular Devices Spectramax MD) with appropriate excitation and emission filters.
The fluorescence polarization assays using peptide 1 was conducted as follows: 0.5 μM peptide substrate and 150 μM βNAD^+ is incubated with 0.1 μg/mL of SIRT1 for 60 minutes at 37° C. in a reaction buffer (25 mM Tris-acetate pH8, 137 mM Na—Ac, 2.7 mM K—Ac, 1 mM Mg—Ac, 0.05% Tween-20, 0.1% Pluronic F127, 10 mM CaCl2, 5 mM DTT, 0.025% BSA, 0.15 mM Nicotinamide). Test compounds 1-18 were solubilized in DMSO and added to the reaction at 11 concentrations ranging from 0.7 μM to 100 μM. […]

Assay [2] has as its target T1, SIRT1. Kind of assay: SIRT1 mass spectrometry (MS) based deacetylation assay. The class given is biochemical.
For another assay, the system named is NCI-H358 cells. Kind of assay: Cellular ATP Assay (ATPLite 1Step normalized to AlamarBlue viability). The format is cell-based. Conditions: Homo sapiens, compounds that raised intracellular ATP levels, read-out: ED50 ATP ASSAY. The method, boiled down: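 NCI-H358 cells (10^4/well, RPMI 1640 + 10% FBS) treated with compound 48 h, then AlamarBlue viability read by fluorescence (ex 545/em 575 nm) and ATP by ATPLite luminescence. ATP per viable cell normalized to plate vehicle average, in arbitrary units, mean of three plate replicates.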

Turning to `COc1ccc(C(=O)Nc2cccc(-c3nc4ncccc4o3)c2)cc1OC` [Compound 52], the EC50 on SIRT1 [1] is 5 to 50 µM; at SIRT1 [2] (SIRT1 activation, mass spectrometry assay, read-out: ED50 MS ASSAY), 5 to 50 µM; in the assay with NCI-H358 cells it was under 50 µM. At SIRT1 [2] (fold activation of SIRT1 as determined by MS), the “FOLD ACT. MS” value was “B (B (Fold Activation <250%))”.
